The values that follow come from US20240139220A1, “TREATMENT OF HPV INFECTION” (priority 2022, published 2024).

The CC50 is the concentration giving 50% cytotoxicity.

Where two headings read alike, the source gives them in different places. Bounds are passed on as bounds.

For one data set, the system named is Hs27 cells. Kind of data set: In vitro cytotoxicity, XTT, five days. Here is the method:
(§1) Three compounds (Compound I, Compound II and Compound III) were solubilized at 40 mM in DMSO and stored at −20° C. The test compounds were evaluated using a high test concentration of 50 μM. Serial half-logarithmic dilutions were performed for the in vitro cytotoxicity assays.
(§2) Cells listed in Table 70 were enumerated by Trypan Blue Dye exclusion method and seeded in the interior wells of a 96 well flat bottom microtiter plate at 100 μL/well. Proliferating cells were incubated overnight at 37° C./5% CO2 to allow the cells to adhere to the plates at approximately 70% confluency. Tissue culture medium was removed and replaced with 100 μL/well of fresh medium. One-hundred microliters (100 μL) of each compound at six concentrations was transferred to the 96-well plate containing the cells in triplicate. Table 70 lists the cell line, type of cell, source of cell stock, base tissue culture medium supplemented with 10% fetal bovine serum, 2 mM L-glutamine, 100 U/mL penicillin and 100 μg/mL streptomycin, and microtiter plate seeding density.
(§3) Following incubation at 37′C in a 5% CO2 incubator for five days, the test plates were stained with the tetrazolium dye XTT (2,3-bis(2-methoxy-4-nitro-5-sulfopheny1)-5-[(phenylamino)carbonyl]-2H-tetrazolium hydroxide). XTT-tetrazolium was metabolized by the mitochondrial enzymes of metabolically active cells to a soluble formazan product. XTT solution was prepared daily as a stock of 1 mg/ml in RPM11640. Phenazine methosulfate (PMS) solution was prepared at 0.15 mg/ml in PBS and stored in the dark at −20° C. XTT/PMS stock was prepared immediately before use by adding 40 μL of PMS per ml of XTT solution. Fifty microliters of XTT/PMS were added to each well of the plate and the plate was reincubated for 4 hours at 37° C. Plates were sealed with adhesive plate sealers and shaken gently or inverted several times to mix the soluble formazan product and the plate was read spectrophotometrically at 450/650 nm with a Molecular Devices Vmax plate reader.
(§4) Microsoft Excel 2010 was used to analyze and graph the raw data. CCso (50% reduction in cell viability) values are tabulated and provided. Raw data for cytotoxicity with a graphic representation of the data are provided in a printout summarizing the compound effect on cell viability.
(§5) Compounds I, II, and III were evaluated for cytotoxicity to proliferating Hs27, HeLa, C33A and HEK293 cells by measuring cell viability using XTI tetrazolium dye following five days in culture (Table 71).
(Tetrazolium assays rely on reduction of a dye to a coloured formazan, in cell work by metabolically active cells.)

A further data set has as its system C33A cells. Description: In vitro cytotoxicity, XTT, five days. The note with it: read-out: C33A CC50. The method, then: as §1, §2, §3, §4, §5
A further data set has as its system HeLa cells. Kind of data set: In vitro cytotoxicity, XTT, five days. Here is the method:
as §1, §2, §3, §4, §5

The subject of a further data set is HEK293 cells. Here is the method: as §1
Cells listed in Table 70 were enumerated by Trypan Blue Dye exclusion method and seeded in the interior wells of a 96 well flat bottom microtiter plate at 100 μL/well. Proliferating cells were incubated overnight at 37° C./5% CO2 to allow the cells to adhere to the plates at approximately 70% confluency. Tissue culture medium was removed and replaced with 100 μL/well of fresh medium. […]
Following incubation at 37′C in a 5% CO2 incubator for five days, the test plates were stained with the tetrazolium dye XTT (2,3-bis(2-methoxy-4-nitro-5-sulfopheny1)-5-[(phenylamino)carbonyl]-2H-tetrazolium hydroxide). […] Plates were sealed with adhesive plate sealers and shaken gently or inverted several times to mix the soluble formazan product and the plate was read spectrophotometrically at 450/650 nm with a Molecular Devices Vmax plate reader. […]
as §5

A short description of data set [1]: Ex vivo permeation and penetration across porcine vaginal tissue (Franz diffusion cells, IVPT). The class given is in vitro ADME. The note with it: porcine vaginal tissue, FIG. 116; Compound II 0.1% gel, ABI-1968 1% and 3% formulations. From the text:
(§6) FIG. 116 is an in vitro tissue permeation test in vaginal tissue comparing Compound II to ABI-1968. […] Bars B and C show the tissue penetration of a 0.1% Compound II gel in […]. […] This may be a contributing factor to the performance of ABI-1968 in clinical studies. […] This is described in Example 41.
Freshly harvested porcine vaginal tissue was procured from local slaughterhouse in an ice box. The vaginal tissue was cut open to expose the mucosal surface and tissue was cleaned by gentle flow of PBS pH 7.4. The porcine vaginal tissue was cut into circular portions (approximately 2 cm^2) with help of a […] punch.
The circular portion of tissue was sandwiched between two chambers of a Franz diffusion cell with an active diffusion area of 1 cm^2, and the mucosal layer was exposed to the donor chambers. The resistance across porcine vaginal tissue was measured using a wave form generator to ensure the integrity of the tissue segment used for the permeation study. Porcine vaginal tissue with resistance of ≥3 KΩ.cm^2 was used for study. The receiver chamber was filled with 8 ml of 5% solutol PBS 7.4 pH, which was stirred at 600 rpm with a 3 mm magnetic stir bar and the temperature was maintained at 37° C. with a circulating water bath.
The ˜200 mg of gel was filled into tared 1 mL syringe and gel was dispensed to donor chamber. The gel was spread on to mucosal surface with pre weighed applicator. After loading and spreading of the gel onto surface of mucosal surface, the weight of 1 mL syringe and applicator was noted to determine the exact amount of gel loaded into donor chamber.
Time course (2 h, 4 h and 8 h) porcine vaginal permeation studies were performed. After loading gel, 500 μL samples were withdrawn from the receiver compartment at different time intervals and each time an equal volume of fresh receiver media was used to replace withdrawn samples. The sample withdrawn at each time interval were stored immediately in −20° C. until analysis. After 2, 4 and 8 h, the formulation was removed from the donor chamber with help of syringe and cleaned with cotton swab. The tissue was removed and washed gently with wash solution (50% methanol in water) 5 times and alternatively cleaning with cotton swab.
An 8 mm punch of active diffusion area of washed porcine vaginal tissue was removed, weighed and transferred into a tube. This tube was immediately placed into dry ice for ˜15 min. After specified time, tissue was removed and placed in precooled dish. The tissue was minced into smaller pieces on a dish with a precooled surgical blade. The minced tissue was transferred to sample tubes and dish was rinsed with 1 ml of 5% solutol in PBS 7.4 pH and transferred to same tissue sample tube. These tubes were stored in −70° C. until analysis.
The samples stored at −20° C. was removed and thawed at room temperature for 30 min. The drug from receptor fluid was centrifuged at 13000 rpm for 5 min and to 200 μL of supernatant equal volume of extraction solvent was added. These samples were centrifuged at 13000 rpm for 5 min and supernatant was transferred into vials for analysis.
The minced tissue samples stored at −70° C. were removed and thawed at room temperature for ˜90 min. The samples were kept for shaking at room temperature for 4 h in BioShaker. After 4 h, samples were centrifuged at 13000 rpm for 5 min. To 100 μL of supernatant, 400 μL of extraction solvent was added and vortexed for 2 min. […]

The nature of data set [2]: Hygroscicity by Dynamic Vapor Sorption (DVS) at 25° C. It is filed as physicochemical. Here is the method: Hygroscopicity was investigated by DVS at 25° C., using the following method: […]
Data set [3] can be described thus: In vitro tissue permeation test in human cervical tissue. It is filed as in vitro ADME. The note with it: 0.1% gel, FIG. 116.
Text: as §6

As to `CCOC(=O)C(C)NP(=O)(COCCn1cnc2c(OC)nc(N)nc21)OCc1ccccc1` (mixture of isomers) [ABl2280], the CC50 was determined as 22.9 µM in the data set on Hs27 cells (read-out: Hs27 CC50, Hs27 cells, XTT, five days); 0.28 µM with C33A cells; 18.6 µM in the data set with HeLa cells (read-out: HeLa CC50, HeLa cells, XTT, five days).
Turning to `CCOC(=O)C(C)NP(=O)(COCCn1cnc2c(OC)nc(N)nc21)OCc1ccccc1` (single isomer, unassigned; isomer 1) [ABl2280 Isomer 1], the CC50 with HEK293 cells was less than 0.16 µM; with Hs27 cells it was 23.2 µM; with C33A cells, 0.2 µM; with HeLa cells, 15.1 µM.
For `CCOC(=O)C(C)NP(=O)(COCCn1cnc2c(OC)nc(N)nc21)OCc1ccccc1` (single isomer, unassigned; isomer 2) [ABl2280 Isomer 2], in that order: less than 0.16 µM, 7.62 µM, less than 0.16 µM and 16.9 µM.
For the molecule `CCOC(=O)[C@H](C)N[P@@](=O)(COCCn1cnc2c(OC)nc(N)nc21)OCc1ccccc1.O=C(O)/C=C/C(=O)O` [Compound II], the “Tissue penetration” value in data set [1] and in data set [3] was “high tissue penetration” throughout. In addition, the “XRPD pattern after humidity cycle” value in data set [2] (cycle of 40-0-95-0-45% relative humidity) was “does not change”. Further, the Water content retained entry in data set [2] (exposed to a cycle of 40-0-95-0-45% relative humidity) was “about 0.25%”.
